Experimental data from patent US20170327598A1, “SINGLE DOMAIN ANTIBODIES DIRECTED AGAINST INTRACELLULAR ANTIGENS” (SINGH MOLECULAR MEDICINE, LLC, priority 2014, published 2017).
“And” between values parts separate entries of the source, which are not always exact repeats. Identical values can stand only once.

Legend:
MDA-MB-468 cells = assay: MTT proliferation assay, MDA-MB-468; assay type: cell-based, human; conditions: MDA-MB-468, 72 hours
BT474 cells = assay: MTT proliferation assay, BT474; assay type: cell-based, human; conditions: BT474, 72 hours
[1] = test system: BT474 human breast tumor xenograft; assay: BT474 human breast tumor xenograft in CB.17 SCID mice, Example 13; assay type: in vivo
HT1080 cells = assay: Anti-proliferative effect, HT1080 cells; assay type: cell-based; conditions: for Absorbance ± S.E.: 72 hr
PANC-1 cells [2] = assay: Internalization of sdAb, anti-His tag staining, PANC-1; assay type: cell-based; conditions: 18 hours
Description: An anti-HIV-1 Reverse Transcriptase (RT) sdAb was used as a negative control.
The slides were incubated for 18 hours after sdAb addition. The chambers were briefly rinsed with media and fixed in ice-cold methanol for 5-10 min. The chambers were then dried and stained with a fluorescent anti-His tag antibody (1:200)(Novus Biologicals, Littleton, Colo.) for 45 min at room temperature. The slides were rinsed in PBS for 5 minutes and mounted.

[3] = test system: STAT3 reporter, induction by interleukin-6; assay: STAT3 reporter GloResponse SIE-luc2P/HEK293 cell assay, IL-6 induction; assay type: cell-based; conditions: for decrease in RLU: highest concentration;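 on all read-outs here: IL-6 added at 40 ng/mL (EC80) for roughly one day after pretreatment, luciferase luminescence read with Bio-Glo reagent, untreated +IL6 wells serve as control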
[4] = test system: GloResponse SIE-luc2P/HEK 293 cells; assay: BCA protein concentration of reporter cells run in parallel; assay type: cell-based; conditions: highest concentration
[5] = test system: translocation of Stat3 to the nucleus; assay: Stat3 immunofluorescence after IL-6 treatment (HEp-2, MDA-MB-231, PANC-1); assay type: cell-based; conditions: sdAb 1:10 in media overnight, 100 ng/ml IL-6 15 min
Description: The cells were grown to confluence on chamber slides. […] As a negative control, no antibody was added to duplicate chambers. The slides were washed, and either serum-free media alone or 100 ng/ml recombinant human IL-6 (Peprotech, Rocky Hill, N.J.) in serum free media was added to the slides for 15 min at 37° C. The media was then removed and the chamber slides were fixed in ice cold 100% methanol for 10 min at −20° C.
Immunofluorescence assays were performed on the fixed slides. First, the slides were blocked with 3% BSA in PBS was done for one hour at room temperature. The primary antibody, Stat3(124H6) mouse monoclonal antibody (Cell Signaling Technology, Danvers, Mass.) was added to the slides at a 1:1000 dilution overnight in dark box at 4° C. The following day, the slides were washed and the secondary Alexa Fluor 488 anti-mouse IgG antibody (Cell Signaling Technology) was added at a 1:500 dilution and incubated for 1 hour at room temperature. The slides were then washed, mounted with mounting media and viewed with a fluorescence microscope.

ARPE-19 cells = assay: BCA protein content of ARPE-19 cell lysate, Experiment 1; assay type: cell-based; conditions: 24 Hr; for Protein Conc.: cell lysate
Description: For Experiment 1, the retinal cell line ARPE-19 (ATCC, Manassas, Va.) were plated at 5×10^4 cells/well into a 24-well plate and grown to confluence. All incubations with cells were performed in a 37° C., 5% CO2 humidified incubator. The media was replaced with growth media (DMEM:HAM12) containing 1% FBS and incubated overnight. […] At that time, the supernatant was removed and stored at <−65° C. for ELISA analysis. Cells were lysed using RIPA lysis buffer (ThermoFisher Scientific, Rockford, Ill.) and the protein content of the cell lysate was measured in the BCA assay (ThermoFisher Scientific) according to the kit instructions. VEGF-A was measured utilizing the Human VEGF-A ELISA Kit (ThermoFisher Scientific) in accordance with the kit instructions.
ELISA results were reported as pictograms (pg) VEGF-A/mL and then adjusted for the dilution of samples in the ELISA (1:2 for Experiment 1 and 1:5 for Experiment 2). The ELISA results were then normalized for protein content. […] The positive control (PC) (anti-STAT3 monoclonal antibody) ranged from 48.8 to 66.4 pg VEFG/[…] slightly lower but overlapping the range seen with the negative control. Statistical analysis confirmed that the variation seen was not statistically significant (P value >0.05). The samples collected at 72 hours were higher than the top standard curve.

[6] = test system: PANC-1 human pancreatic cancer xenograft
PANC-1 cells [7] = assay: PANC-1 growth inhibition with or without Gemcitabine; conditions: SBT-100 100 μg/ml alone, 72 hours (Table 44)
[8] = 24 Hour Treatment Prior to IL6 Induction, high conc.: VHH13 55.8 μg/mL, VHH14 84.3 μg/mL, BB1608 4.16 μM, VHH69 50.5 μg/mL
[9] = 24 Hour Treatment Prior to IL6 Induction, low conc.: VHH13, VHH14, VHH69 10 μg/mL, BB1608 2 μM
[10] = 48 Hour Treatment Prior to IL6 Induction, high conc.: VHH13 55.8 μg/mL, VHH14 84.3 μg/mL, BB1608 4.16 μM, VHH69 50.5 μg/mL
[11] = 48 Hour Treatment Prior to IL6 Induction, low conc.: VHH13, VHH14, VHH69 10 μg/mL, BB1608 2 μM

Substance: Anti-STAT3 VHH13: anti-STAT3 single domain antibody, SEQ ID NO:3; bacterially produced form referred to as SBT-100
- Mean Abs (MDA-MB-468 cells; 0.39 μg/ml): 0.311
- % Inhibition (MDA-MB-468 cells; 3.13 μg/ml): 11.9%
- Mean Abs (MDA-MB-468 cells; 3.13 μg/ml): 0.223
- % Inhibition (MDA-MB-468 cells; 6.25 μg/ml): 9.1%
- Mean Abs (MDA-MB-468 cells; 6.25 μg/ml): 0.230
- % Inhibition (MDA-MB-468 cells; 25 μg/ml): 73.5%
- Mean Abs (MDA-MB-468 cells; 25 μg/ml): 0.067
- % Inhibition (MDA-MB-468 cells; 50 μg/ml): 83.4%
- Mean Abs (MDA-MB-468 cells; 50 μg/ml): 0.042
- % Inhibition (MDA-MB-468 cells; 100 μg/ml): 85.0%
- Mean Abs (MDA-MB-468 cells; 100 μg/ml): 0.038
- % Inhibition (MDA-MB-468 cells; 200 μg/ml): 84.4%
- Mean Abs (MDA-MB-468 cells; 200 μg/ml): 0.040
- Mean Abs (BT474 cells; 0.39 μg/ml): 0.322
- Mean Abs (BT474 cells; 3.13 μg/ml): 0.446
- Mean Abs (BT474 cells; 6.25 μg/ml): 0.469
- Mean Abs (BT474 cells; 25 μg/ml): 0.256
- Mean Abs (BT474 cells; 50 μg/ml): 0.145
- Mean Abs (BT474 cells; 100 μg/ml): 0.046
- Mean Abs (BT474 cells; 200 μg/ml): 0.040
- T-C ([1]; 1 mg/kg ip tid × 14 first day 2 doses): 10.8
- effect on growth of BT474 tumors in vivo ([1]; 1 mg/kg ip tid×14, compared to the control group): did not reduce the growth
- MTV (n) Day 60 ([1]; Day 60, 1 mg/kg ip tid × 14, n in parentheses): 550 (3)
- tumor volume ([1]; day 59 of the study, both groups): 700 cubic mm^3
- Absorbance ± S.E. (HT1080 cells; 25 μg/ml): 1.09 ± 0.01
- Absorbance ± S.E. (HT1080 cells; 50 μg/ml): 0.42 ± 0.04
- Absorbance ± S.E. (HT1080 cells; 100 μg/ml): 0.27 ± 0.01
- Absorbance ± S.E. (HT1080 cells; 200 μg/ml): 0.22 ± 0.02
- IC50 (HT1080 cells; HT1080 cells): 33 µg/mL
- internalization, anti-His tag staining (PANC-1 cells [2]): positive cytoplasmic staining
- Average RLU [3, 8]: 11498 RLU
- Average RLU with Media Blank [3, 8]: 11473 RLU
- Luminescence (RLU), single wells [3, 8]: 10992 RLU and 11445 RLU and 12058 RLU
- Average RLU [3, 9]: 175275 RLU
- Average RLU with Media Blank [3, 9]: 175249 RLU
- Luminescence (RLU), single wells [3, 9]: 164397 RLU and 169890 RLU and 191537 RLU
- Average RLU [3, 10]: 89 RLU
- Average RLU with Media Blank [3, 10]: 57 RLU
- Luminescence (RLU), single wells [3, 10]: 104 RLU and 96 RLU
- Average RLU [3, 11]: 182218 RLU
- Average RLU with Media Blank [3, 11]: 182185 RLU
- Luminescence (RLU), single wells [3, 11]: 168740 RLU and 188307 RLU and 189606 RLU
- effect on IL-6 induction of STAT3 reporter ([3]; 24 hours and 48 hours treatment prior to IL-6): Inhibition of IL-6
- decrease in RLU ([3]; 24 hours): greater than 10 fold
- decrease in RLU ([3]; 48 hours): greater than 1,000 fold
- decrease in protein [4]: approximately 2 fold
- translocation of Stat3 to the nucleus following IL-6 treatment [5]: blocks the translocation of Stat3 to the nucleus
- Total protein per well (ARPE-19 cells; 0.1 μg/well): 12 and 16 and 18
- Protein Conc. (ARPE-19 cells; 0.1 μg/well): 245 µg/mL and 323 µg/mL and 357 µg/mL
- Total protein per well (ARPE-19 cells; 0.5 μg/well): 16 and 13
- Protein Conc. (ARPE-19 cells; 0.5 μg/well): 315 µg/mL and 268 µg/mL and 206 µg/mL
- growth inhibition ([6]; 500 μg/kg bw IP QDx14): no significant growth inhibition
- tumor doubling time ([6]; 500 μg/kg bw IP QDx14): 23.02 days
- mean tumor size (±SE) ([6]; treatment group, day 14 of dosing): 318.74 ± 29.76
- Absorbance (PANC-1 cells [7]): 0.333
